Experimental findings from US12686691B2, “Crystalline form of SHP2 inhibitor, and composition thereof, preparation method therefor, and use thereof” (ETERN BIOPHARMA (SHANGHAI) CO., LTD., priority 2020, dated 2026) are described below.

Molecules are shown by their SMILES.

What all share (assay type): physicochemical
Data set [1] is described as follows: Variable temperature XRPD (heating under nitrogen protection, XRPD after cooling). The procedure: (§1) Instruments and Experimental Conditions Used in the Example • 1. Differential Scanning Calorimeter, DSC • Instrument model: Mettler Toledo DSC3+Stare e System • Purge gas: nitrogen (50 mL/min) • Ramping rate: 10.0° C./min • Temperature range: 20-250° C. • 2. X-Ray Powder Diffraction, XRPD • Instrument model: Rigaku UltimalV X-ray powder diffractometer • Ray: monochromatic Cu—Kα ray (λ=1.5418 Å) • Scanning mode: θ/2θ, scanning range: 3-45° • Voltage: 40 kV, current: 40 mA • 3. Thermogravimetric Analysis, TGA • Instrument model: Mettler Toledo TGA2STAR eSystem • Purge gas: nitrogen • Ramping rate: 10.0° C./min • Temperature range: 20-250° C. • 4. Dynamic Vapour Sorption, DVS • Instrument model: TAQ5000VSA • Temperature: 25° C. • Solvent: water • Humidity change: 0-95-0-95-0% RH, step by 10%, less than 0.01% of mass change within […] as the judging standard • 4. HPLC Method • Instrument model: Agilent 1100 with VWD detector • Columns: poroshell 120 EC C18, 3.0 mm/50 mm/2.7 μm • Mobile phase: A: 0.03% NH4OH (25%~28%) in water • B: 0.03% NH4OH (25%~28%) in acetonitrile
The crystalline form A of Compound 1 was placed under nitrogen protection and heated to different temperatures (30° C., 92° C., 118° C., 132° C. and 175° C., respectively), then subjected to XRPD test after it was cooled.
The crystalline form B of Compound 1 was placed under nitrogen protection and heated to different temperatures (130° C. and 180° C., respectively), then subjected to XRPD test after it was cooled to room temperature.
The crystalline form C of Compound 1 was placed under nitrogen protection and heated to different temperatures (130° C. and 160° C., respectively), then subjected to XRPD test after it was cooled to room temperature.
The crystalline form D of Compound 1 was placed under nitrogen protection and heated to different temperatures (100° C. and 160° C., respectively), then subjected to XRPD test after it was cooled to room temperature.
The crystalline form E of Compound 1 was placed under nitrogen protection and heated to different temperatures (96° C. and 180° C., respectively), then subjected to XRPD test after it was cooled to room temperature.

A further data set in a line: DVS hygroscopicity test. On the procedure: as §1
Hygroscopicity of the crystalline form A of Compound 1 was evaluated by DVS test.

The nature of data set [2]: Stability investigation of the crystalline form A (placement under temperature/humidity, XRPD and HPLC). The conditions noted are these: for Crystalline form change: XRPD; for HPLC purity initial: before placement. The procedure: as §1
• Mobile Phase Flow Rate: 1.0 mL/min • Run time: 10.0 min • Injection volume: 2 μL • Detecting wavelength: UV, 254 nm • Column temperature: 25° C. • Injector temperature: RT • Diluent: acetonitrile:water=1:1 (v:v)
The crystalline form A of Compound 1 was placed under 60° C./closed condition for 24 hours, under 25° C./60% RH and 40° C./75% RH in an open state for one week, respectively. The physical and chemical stability of the sample was detected by XRPD and HPLC.

The mark [3] stands for this setting: heated to 130° C. under nitrogen.
Where [4] appears, read: heated to 160° C. under nitrogen.
Setting [5] is: heated to 180° C. under nitrogen.
Setting [6] is: 40° C./75% RH, 1 week, open state.

As for `Nc1nccc(Sc2cnc(N3CCC4(CC3)Cc3ncccc3[C@H]4N)n3ccnc23)c1Cl` [crystalline form C, (S)-1′-(8-((2-amino-3-chloropyridin-4-yl)thio)imidazo[1,2-c]pyrimidin-5-yl)-5,7-dihydrospiro[cyclopentadieno[b]pyridine-6,4′-piperidine]-5-amine], the “crystalline form after heating and cooling to room temperature” value (“crystalline form … to room temperature” for short) is listed as “converted into an amorphous form” in data set [1] (setting [3]) and “converted to the crystalline form A” in data set [1] (setting [4]).

Turning to `Nc1nccc(Sc2cnc(N3CCC4(CC3)Cc3ncccc3[C@H]4N)n3ccnc23)c1Cl` [crystalline form E, (S)-1′-(8-((2-amino-3-chloropyridin-4-yl)thio)imidazo[1,2-c]pyrimidin-5-yl)-5,7-dihydrospiro[cyclopentadieno[b]pyridine-6,4′-piperidine]-5-amine], the “crystalline form … to room temperature” value in data set [1] (heated to 96° C. under nitrogen) is reported as “a small amount of diffraction signal of the crystalline form A is observed”; in data set [1] (setting [5]) it was “completely converted to the crystalline form A”.

For `Nc1nccc(Sc2cnc(N3CCC4(CC3)Cc3ncccc3[C@H]4N)n3ccnc23)c1Cl` [crystalline form B, (S)-1′-(8-((2-amino-3-chloropyridin-4-yl)thio)imidazo[1,2-c]pyrimidin-5-yl)-5,7-dihydrospiro[cyclopentadieno[b]pyridine-6,4′-piperidine]-5-amine], the entries for the “crystalline form … to room temperature” value in data set [1] (setting [3]) and in data set [1] (setting [5]) were “converted into an amorphous form” and “converted to the crystalline form A”, respectively.

As to `Nc1nccc(Sc2cnc(N3CCC4(CC3)Cc3ncccc3[C@H]4N)n3ccnc23)c1Cl` [crystalline form D, (S)-1′-(8-((2-amino-3-chloropyridin-4-yl)thio)imidazo[1,2-c]pyrimidin-5-yl)-5,7-dihydrospiro[cyclopentadieno[b]pyridine-6,4′-piperidine]-5-amine], the “crystalline form … to room temperature” value in data set [1] (heated to 100° C. under nitrogen) is “crystallinity was significantly reduced”; in data set [1] (setting [4]) it was “diffraction signal of the crystalline form A is observed”.

`Nc1nccc(Sc2cnc(N3CCC4(CC3)Cc3ncccc3[C@H]4N)n3ccnc23)c1Cl` [crystalline form A, (S)-1′-(8-((2-amino-3-chloropyridin-4-yl)thio)imidazo[1,2-c]pyrimidin-5-yl)-5,7-dihydrospiro[cyclopentadieno[b]pyridine-6,4′-piperidine]-5-amine]: in “DVS hygroscopicity test” (DVS, 80.0% RH, 25° C.), the “weight gain of moisture absorption” value is 1.88%. Further, the hygroscopicity entry in the data set “DVS hygroscopicity test” (DVS, judged from weight gain at 80.0% RH) is reported as “slight hygroscopicity”. In addition, the “crystalline form before and after DVS test (XRPD)” value in the data set “DVS hygroscopicity test” (XRPD before and after DVS) is “consistent”. Besides, in data set [1] (heated to 30° C., 92° C., 118° C., 132° C. and 175° C. under nitrogen, XRPD after cooling), the “crystalline form change during heating” value is recorded as “no crystalline form change”. In addition, the “HPLC purity After placement” value is 97.99 area % in data set [2] (25° C./60% RH, 1 week); 97.89 area % in data set [2] (setting [6]); 98.55 area % in data set [2] (60° C./closed, 24 hours). The “HPLC purity Relative to initial” value in data set [2] (25° C./60% RH, 1 week) came out at 99.6%; in data set [2] (setting [6]), 99.5%; in data set [2] (60° C./closed, 24 hours) it was 99.9%. Also, the Crystalline form change result is “no crystalline form change” in data set [2] (25° C./60% RH, 1 week); “no” in data set [2] (25° C./60% RH, 1 week, listed as Crystalline form A); “only part of crystalline form A was converted to hydrate crystalline form B” in data set [2] (setting [6]); “yes” in data set [2] (40° C./75% RH, 1 week, open state, listed as Crystalline form A); “no crystalline form change” in data set [2] (60° C./closed, 24 hours); “no” in data set [2] (60° C./closed, 24 hours, listed as Crystalline form A). In data set [2] (all three stability test conditions), the “chemical stability (HPLC)” value is “good chemical stability”. Moreover, the “purity maintained after placement (HPLC)” value in data set [2] (all three stability test conditions (25° C./60% RH 1 week, 40° C./75% RH 1 week, 60° C./closed 24 hours)) was “about 98%”. In addition, the HPLC purity initial in data set [2] (sample of the 25° C./60% RH and 40° C./75% RH 1 week tests) was determined as 98.41 area %; in data set [2] (sample of the 60° C./closed 24 hours test), 98.60 area %. Further, the “stability (overall conclusion of the stability investigation)” value in data set [2] (conclusion from Examples 1.67 and 1.68) is “excellent stability”.
